# Data reported in US4933347A, “Diamidines and bis(imidazolines) for the treatment of and prophylaxis against pneumocystis carinii pneumonia” (University of North Carolina at Chapel Hill, priority 1988, dated 1990).
# Entries after “also recorded” stand apart in the source; their conditions may differ.
# System: Pneumocystis carinii
# Assay: Treatment of Pneumocystis carinii pneumonia in Sprague-Dawley rats (extent of disease by histologic score)
# Assay type: in vivo, male Sprague-Dawley rats
# Conditions: for Extent of Disease by Histologic Score: number of animals with score 0.5 / Extent of disease by histologic score (combined): number of animals in scoring group 0.5: 0.5 = <10 cysts found per 2 sections; for Extent of Disease by Histologic Score: number of animals with score 1 / Extent of disease by histologic score (combined): number of animals in scoring group 1: 1 = scattered cysts, <5% of lung involved; for Extent of Disease by Histologic Score: number of animals with score 2 / Extent of disease by histologic score (combined): number of animals in scoring group 2: 2 = scattered cysts; for Extent of Disease by Histologic Score: number of animals with score 2: 5-10% lung involved or small foci of infection; for Extent of Disease by Histologic Score: number of animals with score 3 / Extent of disease by histologic score (combined): number of animals in scoring group 3: 3 = scattered cysts; for Extent of disease by histologic score (combined): number of animals in scoring group 0.5 / Extent of disease by histologic score (combined): number of animals in scoring group 1 / Extent of disease by histologic score (combined): number of animals in scoring group 2 / Extent of disease by histologic score (combined): number of animals in scoring group 3 / Extent of disease by histologic score (combined): number of animals in scoring group 4: Table XII composite, 10 mg/kg; for Extent of disease by histologic score (combined): number of animals in scoring group 2: 5-10% of lung involved
# Experimental: Induction and Treatment Of Pneumocystis Carinii in Sprague-Dawley Rats
# Male Sprague-Dawley rats, barrier raised, non-certified virus free, weighing 150-200g were obtained from Hilltop Laboratories and housed individually. Animals were begun on a low (8%) protein diet (ICN Biomedicals, Cincinnati, OH) and drinking water containing tetracycline (0.5 mg/ml) and dexamethasone (1.0 μg/ml) immediately upon arrival. This treatment was given for the next 8 weeks, monitoring fluid intake daily and weighing animals weekly. Dilutions of the drinking solution were made when animals consumed too much fluid so as to prevent cortisone poisoning. At the beginning of the sixth week, animals were divided into groups of 8 animals each and the test compounds were administered daily by i.v. injection at a dose of 10 mg/kg, unless otherwise noted, for the next 14 days.
# Animals were sacrificed at the end of the eighth week by chloroform inhalation and the left lung was removed aseptically and placed in sterile Hank's balanced salts solution without calcium or magnesium (HBSS-) for the ground tissue procedure. The right lung was inflated in situ with 10% […] and removed for histologic examination GMS staining. […]
# [1] = 10 mg/kg i.v. daily, 14 days, 10-50% of lung involved with some intense areas of infection
# [2] = 10 mg/kg i.v. daily, 14 days, 4 = >50% of lung involved with many intense areas of focal infection
# [3] = 10 mg/kg unless otherwise noted
Structure (SMILES),"Extent of Disease by Histologic Score: number of animals with score 2 (10 mg/kg i.v. daily, 14 days) [animals]",Extent of Disease by Histologic Score: number of animals with score 3 [1] [animals],Extent of Disease by Histologic Score: number of animals with score 4 [2] [animals],Efficacy in treating PCP compared with pentamidine [3],Extent of disease by histologic score (combined): number of animals in scoring group 0.5 [animals],Extent of disease by histologic score (combined): number of animals in scoring group 1 [animals],Extent of disease by histologic score (combined): number of animals in scoring group 2 [animals],Extent of disease by histologic score (combined): number of animals in scoring group 3 (10-50% of lung involved) [animals],Extent of disease by histologic score (combined): number of animals in scoring group 4 (4 = >50% of lung involved) [animals],Efficacy in treating PCP compared with control [3],"Extent of Disease by Histologic Score: number of animals with score 0.5 (10 mg/kg i.v. daily, 14 days) [animals]","Extent of Disease by Histologic Score: number of animals with score 1 (10 mg/kg i.v. daily, 14 days) [animals]",further results
"N=C(N)c1ccc(OCCCCOc2ccc(C(=N)N)cc2)cc1 [Example 9, butamidine]",0,0,0,significantly better than pentamidine in controlling pcp; also recorded: significantly better than pentamidine at the 10 mg/kg dosage level,8,0,0,0,0,,,,"Extent of Disease by Histologic Score: number of animals with score 0.5 (0.1 mg/kg): 0 animals; Extent of Disease by Histologic Score: number of animals with score 1 (0.1 mg/kg): 0 animals; Extent of Disease by Histologic Score: number of animals with score 2 (0.1 mg/kg): 4 animals; Extent of Disease by Histologic Score: number of animals with score 3 (0.1 mg/kg, 10-50% of lung involved): 5 animals; Extent of Disease by Histologic Score: number of animals with score 4 (0.1 mg/kg, 4 = >50% of lung involved): 2 animals; Efficacy in treating PCP compared with pentamidine (1 mg/kg or 0.1 mg/kg): essentially no difference in the two compounds; Extent of Disease by Histologic Score: number of animals with score 0.5 (1 mg/kg): 0 animals; Extent of Disease by Histologic Score: number of animals with score 1 (1 mg/kg): 1 animals; Extent of Disease by Histologic Score: number of animals with score 2 (1 mg/kg): 3 animals; Extent of Disease by Histologic Score: number of animals with score 3 (1 mg/kg, 10-50% of lung involved): 5 animals; Extent of Disease by Histologic Score: number of animals with score 4 (1 mg/kg, 4 = >50% of lung involved): 3 animals"
N=C(N)c1ccc(OCCCCCOc2ccc(C(=N)N)cc2N)c(N)c1 [Example 14],,,0,improved performance in treating pcp; also recorded: approximately comparable to pentamidine in efficacy,8,5,1,1,0,significantly better than the control,,,
N=C(N)c1ccc(NCCCNc2ccc(C(=N)N)cc2)cc1 [Example 7],2,0,0,better than or equal to pentamidine,5,1,2,0,0,,5,1,Efficacy in treating PCP compared with related compounds of the series (effect of chain length or substituent): most effective
c1cc(C2=NCCN2)ccc1OCCCCCOc1ccc(C2=NCCN2)cc1 [Example 30],0,0,0,comparable to or perhaps slightly better than pentamidine,5,3,0,0,0,,5,3,
N=C(N)c1cccc(OCCCCCOc2cccc(C(=N)N)c2)c1 [Example 28],,,,,4,3,6,2,1,,,,
N=C(N)c1ccc(OCCCOc2ccc(C(=N)N)cc2N)c(N)c1 [Example 5],1,0,0,approximately comparable to pentamidine in efficacy,2,4,1,0,0,significantly better than the control,2,4,
N=C(N)c1ccc(NCCCCCCNc2ccc(C(=N)N)cc2)cc1 [Example 39],0,0,0,,,,,,,,2,1,
N=C(N)c1ccc(NCCCCCNc2ccc(C(=N)N)cc2N)c(N)c1 [Example 19],4,2,0,not as good as pentamidine in controlling pcp,3,2,3,0,0,better than the control,0,2,
"N=C(N)c1ccc(OCCCCCCOc2ccc(C(=N)N)cc2)cc1 [Example 20, hexamidine, reference compound]",1,0,0,improved performance in treating pcp,3,3,1,0,0,,3,3,
